# Assays:
# Assay in all cases: relative viability (nuclei count vs DMSO), 5 days (fraction); higher = more cells survive
# [1] = compound: CC1=NN=C(O1)C2=NN=C(C=C2)N3CCC(CC3)OC4=C(C=CC(=C4)F)Cl + Cc1nc(NC(=O)N2CCC[C@H]2C(N)=O)sc1-c1ccnc(C(C)(C)C(F)(F)F)c1 [Alpelisib] (partner 2 µM)
# Method in brief: (§1)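 One day after seeding in 1536-well plates, lung cancer cell lines were dosed by pin tool. Dosing was either single-drug or a fixed anchor-drug dose plus five library-drug doses (not always all listed) in √10 steps. After 5 days, nuclei were stained in one fix-and-stain step and counted on 4× images, and relative viability is the nuclei count of treated wells over that of vehicle wells, given as the median of duplicate plates.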
# Tosedostat + Decitabine = compound: CC(C)C[C@@H](C(=O)N[C@H](C(=O)OC1CCCC1)c1ccccc1)[C@H](O)C(=O)NO [Tosedostat] + Nc1ncn([C@H]2C[C@H](O)[C@@H](CO)O2)c(=O)n1 [Decitabine] (partner 2 µM)
# Method in brief: as §1
# Tosedostat + Dasatinib = compound: CC(C)C[C@@H](C(=O)N[C@H](C(=O)OC1CCCC1)c1ccccc1)[C@H](O)C(=O)NO [Tosedostat] + Cc1nc(Nc2ncc(C(=O)Nc3c(C)cccc3Cl)s2)cc(N2CCN(CCO)CC2)n1 [Dasatinib] (partner 0.075 µM)
# Method in brief: as §1
# Tosedostat + Palbociclib = compound: CC(C)C[C@@H](C(=O)N[C@H](C(=O)OC1CCCC1)c1ccccc1)[C@H](O)C(=O)NO [Tosedostat] + CC(=O)c1c(C)c2cnc(Nc3ccc(N4CCNCC4)cn3)nc2n(C2CCCC2)c1=O [Palbociclib] (partner 0.5 µM)
# Method in brief: as §1
cell line,measurement,setting,value
UMC-11,relative viability,[1]; first compound 0.253 µM,0.744
same,relative viability,[1]; first compound 0.8 µM,0.679
same,relative viability,[1]; first compound 2.53 µM,0.687
same,relative viability,[1]; first compound 8 µM,0.667
same,relative viability,Tosedostat + Decitabine; first compound 0.02 µM,0.687
same,relative viability,Tosedostat + Decitabine; first compound 0.06325 µM,0.575
same,relative viability,Tosedostat + Decitabine; first compound 0.2 µM,0.801
same,relative viability,Tosedostat + Decitabine; first compound 0.6325 µM,0.568
same,relative viability,Tosedostat + Decitabine; first compound 2 µM,0.587
same,relative viability,Tosedostat + Dasatinib; first compound 0.02 µM,0.499
same,relative viability,Tosedostat + Dasatinib; first compound 0.06325 µM,0.454
same,relative viability,Tosedostat + Dasatinib; first compound 0.2 µM,0.453
same,relative viability,Tosedostat + Dasatinib; first compound 0.6325 µM,0.448
same,relative viability,Tosedostat + Dasatinib; first compound 2 µM,0.504
same,relative viability,Tosedostat + Palbociclib; first compound 0.02 µM,0.339
same,relative viability,Tosedostat + Palbociclib; first compound 0.06325 µM,0.341
same,relative viability,Tosedostat + Palbociclib; first compound 0.2 µM,0.299
same,relative viability,Tosedostat + Palbociclib; first compound 0.6325 µM,0.362
same,relative viability,Tosedostat + Palbociclib; first compound 2 µM,0.338
